Reference: article PMC10178848, “Modulating fast skeletal muscle contraction protects skeletal muscle in animal models of Duchenne muscular dystrophy” (The Journal of Clinical Investigation, 2023)
Read-outs that look alike come from different tables or passages of the source.

Test system: GRMD plasma proteins
Type: in vivo, dog
[1] = EDG-5506 treatment to GRMD baseline, Decreased in GRMD

Structure (SMILES): O=c1ccc(-c2cnc(OCC(F)(F)F)nc2)nn1Cc1cncc(F)c1 [EDG-5506]
- Change from GRMD Baseline (fraction) (3-hydroxy-3-methylglutaryl-coenzyme A reductase (HMGCR), EDG-5506 treatment to GRMD baseline): 0.149 fraction
- Change from GRMD Baseline (fraction) (3-hydroxy-3-methylglutaryl-coenzyme A reductase (HMGCR), Post-Treatment to GRMD baseline): -0.0053 fraction
- Change from GRMD Baseline (fraction) (Annexin A5 (ANXA5), EDG-5506 treatment to GRMD baseline): 0.0604 fraction
- Change from GRMD Baseline (fraction) (Annexin A5 (ANXA5), Post-Treatment to GRMD baseline): -0.0309 fraction
- Change from GRMD Baseline (fraction) (Apolipoprotein M (APOM), EDG-5506 treatment to GRMD baseline): 0.1027 fraction
- Change from GRMD Baseline (fraction) (Apolipoprotein M (APOM), Post-Treatment to GRMD baseline): -0.1149 fraction
- Change from GRMD Baseline (fraction) (Bactericidal permeability-increasing protein (BPI), EDG-5506 treatment to GRMD baseline): 0.0745 fraction
- Change from GRMD Baseline (fraction) (Bactericidal permeability-increasing protein (BPI), Post-Treatment to GRMD baseline): 0.1503 fraction
- Change from GRMD Baseline (fraction) (Basigin (BSG), EDG-5506 treatment to GRMD baseline): 0.1541 fraction
- Change from GRMD Baseline (fraction) (Basigin (BSG), Post-Treatment to GRMD baseline): -0.07 fraction
- Change from GRMD Baseline (fraction) (Brain-derived neurotrophic factor (BDNF), EDG-5506 treatment to GRMD baseline): 0.0859 fraction
- Change from GRMD Baseline (fraction) (Brain-derived neurotrophic factor (BDNF), Post-Treatment to GRMD baseline): -0.07 fraction
- Change from GRMD Baseline (fraction) (Calcium/calmodulin-dependent 3',5'-cyclic nucleotide phosphodiesterase 1A (PDE1A), EDG-5506 treatment to GRMD baseline): 0.0363 fraction
- Change from GRMD Baseline (fraction) (Calcium/calmodulin-dependent 3',5'-cyclic nucleotide phosphodiesterase 1A (PDE1A), Post-Treatment to GRMD baseline): -0.0044 fraction
- Change from GRMD Baseline (fraction) (Carbohydrate sulfotransferase 15 (CHST15), EDG-5506 treatment to GRMD baseline): 0.0872 fraction
- Change from GRMD Baseline (fraction) (Carbohydrate sulfotransferase 15 (CHST15), Post-Treatment to GRMD baseline): -0.1346 fraction
- Change from GRMD Baseline (fraction) (Carbonic anhydrase 7 (CA7), EDG-5506 treatment to GRMD baseline): 0.1779 fraction
- Change from GRMD Baseline (fraction) (Carbonic anhydrase 7 (CA7), Post-Treatment to GRMD baseline): 0.1249 fraction
- Change from GRMD Baseline (fraction) (Cathepsin G (CTSG), EDG-5506 treatment to GRMD baseline): 0.0969 fraction
- Change from GRMD Baseline (fraction) (Cathepsin G (CTSG), Post-Treatment to GRMD baseline): 0.1704 fraction
- Change from GRMD Baseline (fraction) (Cathepsin H (CTSH), EDG-5506 treatment to GRMD baseline): 0.1349 fraction
- Change from GRMD Baseline (fraction) (Cathepsin H (CTSH), Post-Treatment to GRMD baseline): -0.0348 fraction
- Change from GRMD Baseline (fraction) (Ciliary neurotrophic factor (CNTF), EDG-5506 treatment to GRMD baseline): 0.2366 fraction
- Change from GRMD Baseline (fraction) (Ciliary neurotrophic factor (CNTF), Post-Treatment to GRMD baseline): 0.313 fraction
- Change from GRMD Baseline (fraction) (Collectin-11 (COLEC11), EDG-5506 treatment to GRMD baseline): -0.1017 fraction
- Change from GRMD Baseline (fraction) (Collectin-11 (COLEC11), Post-Treatment to GRMD baseline): -0.0756 fraction
- Change from GRMD Baseline (fraction) (Complement component C7 (C7), EDG-5506 treatment to GRMD baseline): 0.118 fraction
- Change from GRMD Baseline (fraction) (Complement component C7 (C7), Post-Treatment to GRMD baseline): 0.1005 fraction
- Change from GRMD Baseline (fraction) (Contactin-2 (CNTN2), EDG-5506 treatment to GRMD baseline): 0.1036 fraction
- Change from GRMD Baseline (fraction) (Contactin-2 (CNTN2), Post-Treatment to GRMD baseline): -0.068 fraction
- Change from GRMD Baseline (fraction) (Cytotoxic T-lymphocyte protein 4 (CTLA4), EDG-5506 treatment to GRMD baseline): 0.1272 fraction
- Change from GRMD Baseline (fraction) (Cytotoxic T-lymphocyte protein 4 (CTLA4), Post-Treatment to GRMD baseline): 0.041 fraction
- Change from GRMD Baseline (fraction) (Delta-like protein 4 (DLL4), EDG-5506 treatment to GRMD baseline): 0.0825 fraction
- Change from GRMD Baseline (fraction) (Delta-like protein 4 (DLL4), Post-Treatment to GRMD baseline): -0.0212 fraction
- Change from GRMD Baseline (fraction) (Dickkopf-related protein 3 (DKK3), EDG-5506 treatment to GRMD baseline): 0.0897 fraction
- Change from GRMD Baseline (fraction) (Dickkopf-related protein 3 (DKK3), Post-Treatment to GRMD baseline): -0.0042 fraction
- 3-hydroxyisobutyrate dehydrogenase, mitochondrial (HIBADH): Change from GRMD Baseline (fraction) [1]: 0.1537 fraction
- 14-3-3 protein beta/alpha (YWHAB): Change from GRMD Baseline (fraction) [1]: -0.0886 fraction
- 14-3-3 protein sigma (SFN): Change from GRMD Baseline (fraction) [1]: 0.3172 fraction
- 72 kDa type IV collagenase (MMP2): Change from GRMD Baseline (fraction) [1]: 0.1734 fraction
- Adrenomedullin (ADM): Change from GRMD Baseline (fraction) [1]: -0.0855 fraction
- Aggrecan core protein (ACAN): Change from GRMD Baseline (fraction) [1]: 0.167 fraction
- Alpha-synuclein (SNCA): Change from GRMD Baseline (fraction) [1]: 0.0584 fraction
- Apolipoprotein B (APOB): Change from GRMD Baseline (fraction) [1]: 0.074 fraction
- Appetite-regulating hormone (GHRL): Change from GRMD Baseline (fraction) [1]: 0.1979 fraction
- Atrial natriuretic factor (NPPA): Change from GRMD Baseline (fraction) [1]: 0.1398 fraction
- BDNF/NT-3 growth factors receptor (NTRK2): Change from GRMD Baseline (fraction) [1]: 0.1937 fraction
- BH3-interacting domain death agonist (BID): Change from GRMD Baseline (fraction) [1]: 0.1126 fraction
- Bcl-2-related protein A1 (BCL2A1): Change from GRMD Baseline (fraction) [1]: -0.0911 fraction
- Bone morphogenetic protein 6 (BMP6): Change from GRMD Baseline (fraction) [1]: 0.2555 fraction
- Bone morphogenetic protein 10 (BMP10): Change from GRMD Baseline (fraction) [1]: 0.1398 fraction
- C-X-C motif chemokine 10 (CXCL10): Change from GRMD Baseline (fraction) [1]: 0.1922 fraction
- C-type mannose receptor 2 (MRC2): Change from GRMD Baseline (fraction) [1]: 0.1728 fraction
- CD166 antigen (ALCAM): Change from GRMD Baseline (fraction) [1]: 0.2333 fraction
- Cadherin-5 (CDH5): Change from GRMD Baseline (fraction) [1]: 0.1109 fraction
- Carboxypeptidase E (CPE): Change from GRMD Baseline (fraction) [1]: 0.0406 fraction
- Cell adhesion molecule 1 (CADM1): Change from GRMD Baseline (fraction) [1]: 0.0424 fraction
- Chromogranin-A (CHGA): Change from GRMD Baseline (fraction) [1]: 0.2322 fraction
- Ciliary neurotrophic factor receptor subunit alpha (CNTFR): Change from GRMD Baseline (fraction) [1]: 0.1045 fraction
- Ck-beta-8-1 (CCL23): Change from GRMD Baseline (fraction) [1]: 0.0708 fraction
- Coiled-coil domain-containing protein 80 (CCDC80): Change from GRMD Baseline (fraction) [1]: -0.0672 fraction
- Collagen alpha-1(VIII) chain (COL8A1): Change from GRMD Baseline (fraction) [1]: 0.2128 fraction
- Collagenase 3 (MMP13): Change from GRMD Baseline (fraction) [1]: -0.0939 fraction
- Collectin-12 (COLEC12): Change from GRMD Baseline (fraction) [1]: 0.2006 fraction
- Complement component C1q receptor (CD93): Change from GRMD Baseline (fraction) [1]: 0.1785 fraction
- Complement decay-accelerating factor (CD55): Change from GRMD Baseline (fraction) [1]: -0.0957 fraction
- Contactin-1 (CNTN1): Change from GRMD Baseline (fraction) [1]: 0.0923 fraction
- Corticotropin (POMC): Change from GRMD Baseline (fraction) [1]: -0.096 fraction
- Cytotoxic and regulatory T-cell molecule (CRTAM): Change from GRMD Baseline (fraction) [1]: -0.015 fraction
- Dickkopf-related protein 1 (DKK1): Change from GRMD Baseline (fraction) [1]: 0.2889 fraction
- Dickkopf-related protein 4 (DKK4): Change from GRMD Baseline (fraction) [1]: 0.1406 fraction
- E3 ubiquitin-protein ligase ZNRF3 (ZNRF3): Change from GRMD Baseline (fraction) [1]: -0.0555 fraction
- Ephrin type-A receptor 5 (EPHA5): Change from GRMD Baseline (fraction) [1]: 0.0759 fraction
- Ephrin-A2 (EFNA2): Change from GRMD Baseline (fraction) [1]: 0.0899 fraction
- Ephrin-A5 (EFNA5): Change from GRMD Baseline (fraction) [1]: 0.0839 fraction
- Epidermal growth factor receptor (EGFR): Change from GRMD Baseline (fraction) [1]: 0.2223 fraction
- Estradiol 17-beta-dehydrogenase 1 (HSD17B1): Change from GRMD Baseline (fraction) [1]: 0.1223 fraction
- Fatty acid-binding protein, epidermal (FABP5): Change from GRMD Baseline (fraction) [1]: 0.0517 fraction
- Fc receptor-like protein 3 (FCRL3): Change from GRMD Baseline (fraction) [1]: -0.0177 fraction
- GDNF family receptor alpha-2 (GFRA2): Change from GRMD Baseline (fraction) [1]: 0.1299 fraction
- Galectin-8 (LGALS8): Change from GRMD Baseline (fraction) [1]: 0.0779 fraction
- Galectin-9 (LGALS9): Change from GRMD Baseline (fraction) [1]: -0.04 fraction
- Gamma-enolase (ENO2): Change from GRMD Baseline (fraction) [1]: 0.1938 fraction
- Gastrin-releasing peptide (GRP): Change from GRMD Baseline (fraction) [1]: 0.0715 fraction
- Glutamate carboxypeptidase 2 (FOLH1): Change from GRMD Baseline (fraction) [1]: 0.301 fraction
- Glypican-2 (GPC2): Change from GRMD Baseline (fraction) [1]: 0.2818 fraction
- Gremlin-1 (GREM1): Change from GRMD Baseline (fraction) [1]: 0.117 fraction
- Growth/differentiation factor 8 (MSTN): Change from GRMD Baseline (fraction) [1]: 0.0197 fraction
- Growth/differentiation factor 11/8 (GDF11 MSTN): Change from GRMD Baseline (fraction) [1]: 0.039 fraction
- Hemoglobin (HBA1 HBB): Change from GRMD Baseline (fraction) [1]: -0.194 fraction
- Heparin cofactor 2 (SERPIND1): Change from GRMD Baseline (fraction) [1]: 0.095 fraction
- Hepatitis A virus cellular receptor 2 (HAVCR2): Change from GRMD Baseline (fraction) [1]: -0.0356 fraction
- High affinity immunoglobulin gamma Fc receptor I (FCGR1A): Change from GRMD Baseline (fraction) [1]: 0.1553 fraction
- Histone-lysine N-methyltransferase EHMT2 (EHMT2): Change from GRMD Baseline (fraction) [1]: 0.3323 fraction
- Hyaluronan and proteoglycan link protein 1 (HAPLN1): Change from GRMD Baseline (fraction) [1]: 0.0551 fraction
- Insulin-like growth factor 1 receptor (IGF1R): Change from GRMD Baseline (fraction) [1]: 0.1691 fraction
- Integrin alpha-V: beta-5 complex (ITGAV ITGB5): Change from GRMD Baseline (fraction) [1]: -0.051 fraction
- Interleukin-4 receptor subunit alpha (IL4R): Change from GRMD Baseline (fraction) [1]: 0.1823 fraction
- Interleukin-18-binding protein (IL18BP): Change from GRMD Baseline (fraction) [1]: 0.0143 fraction
- Interstitial collagenase (MMP1): Change from GRMD Baseline (fraction) [1]: 0.0861 fraction
- Leucine-rich repeat transmembrane neuronal protein 3 (LRRTM3): Change from GRMD Baseline (fraction) [1]: 0.2512 fraction
- Limbic system-associated membrane protein (LSAMP): Change from GRMD Baseline (fraction) [1]: 0.1355 fraction
- Lymphocyte activation gene 3 protein (LAG3): Change from GRMD Baseline (fraction) [1]: 0.164 fraction
- Lysosome membrane protein 2 (SCARB2): Change from GRMD Baseline (fraction) [1]: 0.1336 fraction
- MHC class I polypeptide-related sequence B (MICB): Change from GRMD Baseline (fraction) [1]: 0.2058 fraction
- Matrilin-2 (MATN2): Change from GRMD Baseline (fraction) [1]: -0.0022 fraction
- Melanoma-derived growth regulatory protein (MIA): Change from GRMD Baseline (fraction) [1]: 0.1875 fraction
- Moesin (MSN): Change from GRMD Baseline (fraction) [1]: -0.082 fraction
- Muellerian-inhibiting factor (AMH): Change from GRMD Baseline (fraction) [1]: 0.0498 fraction
- NKG2D ligand 1 (ULBP1): Change from GRMD Baseline (fraction) [1]: -0.0534 fraction
- NT-3 growth factor receptor (NTRK3): Change from GRMD Baseline (fraction) [1]: 0.1168 fraction
- Netrin receptor UNC5C (UNC5C): Change from GRMD Baseline (fraction) [1]: 0.03 fraction
- Neurogenic locus notch homolog protein 2 (NOTCH2): Change from GRMD Baseline (fraction) [1]: 0.2188 fraction
- Neurogenic locus notch homolog protein 3 (NOTCH3): Change from GRMD Baseline (fraction) [1]: 0.0936 fraction
- Nuclear receptor subfamily 1 group D member 1 (NR1D1): Change from GRMD Baseline (fraction) [1]: 0.048 fraction
- Phospholipase A2 (PLA2G1B): Change from GRMD Baseline (fraction) [1]: 0.0754 fraction
- Placenta growth factor (PGF): Change from GRMD Baseline (fraction) [1]: -0.066 fraction
- Plasminogen (PLG): Change from GRMD Baseline (fraction) [1]: 0.2052 fraction
- PolyUbiquitin K63-linked (UBC): Change from GRMD Baseline (fraction) [1]: 0.2167 fraction
